According to US9834525B2, “Inhibitors of paxillin function and related compositions and methods” (UNIVERSITY OF TENNESSEE RESEARCH FOUNDATION, priority 2015, dated 2017):
Entries after “also recorded” stand apart in the source; their conditions may differ.

Experiments:
murine OIR model = experiment: Murine OIR model, retinal whole-mounts; format: in vivo, mouse; conditions: daily ocular administration 0.5 mg/kg or 5 mg/kg in ME, P12 to P17, vs vehicle
From the text: Topical delivery of compound (II-4) using an ocular ME was chosen for several reasons. First, intravitreal injection is technically challenging and, unlike intraocular delivery of proteins, is unnecessary for delivery of small molecules. […] The murine OIR model was used to examine the effect of compound (II-4) on the natural history of VEGF-induced proliferative retinopathy. Briefly, pups were exposed to 75% oxygen at post-natal day 7 (P7) for 5 days and then returned to normal oxygen at P12. Mice received daily ocular administration of either compound (II-4) (0.5 mg/kg or 5 mg/kg) or vehicle (ME) from P12 to P17. Eyes were enucleated at P17 and retinal whole-mounts stained for endothelial cells followed by quantification of avascular area and vascular tuft formation.
FIG. 22: Oxygen-Induced Retinopathy (OIR). (A:) P17 retinal whole-mounts were stained for endothelial cells. […] Data represent mean (±SD). N=8-14/group. […] (C): Quantitation of panel A neovascular area. (D): Quantitation of panel A avascular area. (E): Quantitation of panel B total paxillin.

[1] = Microsomal stability, pooled mouse liver microsomes; format: in vitro ADME; conditions: 1 μM, 37° C., 60 min
Method: (§1) Microsomal stability of compound (II-4) (1 μM) was assessed in pooled liver microsomes (human, mouse, and rat) (FIG. 7). Briefly, compound (II-4) was incubated in duplicate with microsomes at 37° C. Reactions contained microsomal protein in 100 mM potassium phosphate, 2 mM NADPH, 3 mM MgCl2, pH 7.4. NADPH was omitted to detect NADPH-free degradation. At 60 minutes, the reaction was stopped by adding ice-cold methanol containing internal standard. Samples were centrifuged to remove precipitated protein, and the supernatants were analyzed by LC/MS/MS to quantitate the remaining parent.
as §1, with “23).” for “7).”, “min,” for “minutes,”, “(+” for “containing”, “standard).” for “standard.”

92.1 cell line = experiment: CFSE cellular proliferation, 92.1; format: cell-based, human; conditions: 96 hrs culture, 1 μM for the last 24 hrs
Method: Harvested cells were resuspended at a concentration of 1.0×10^6 cells/mL in warm PBS/1% FBS. Cells were labeled with […] (Invitrogen) for 5 minutes at 37° C. then quenched on cold growth media (final volume 20 mL) for 10 minutes, twice. Cultured unlabeled cells were used as controls.
To test the hypothesis that inhibition of paxillin will reduce cellular proliferation UM cell lines were labeled with carboxyfluorescein succunimidyl ester (CFSE), a cell tracking dye, and cultured for 96 hrs. A group of cells received treatment with compound (II-4) for the last 24 hours. Maximum CFSE fluorescence was controlled using labeled cells prior culture −0 hr. Negative control was established using unlabeled cells cultured in parallel. Histograms in FIG. 15D show 96 hrs cultured cells divided with a 1-log shift or reduction in CFSE intensity. […] Cell proliferation was not affected in the 92.1 cell line. […]
FIG. 15: The paxillin inhibitor Compound (II-4) selectively affects cellular proliferation of primary UM cells that become metastatic. […] Unlabeled cells were used to control fluorescence. […] B. Quantitation of experiment +/−SD including primary UM that becomes metastatic (Mel 270), metastatic (OMM 2.1) and primary (92.1) UM cells. *P=0.0007 and **P=0.0005. […] Quantitation of VLA-4 protein levels +/−SD from n=3. […]

[2] = tested on: retinal endothelial cells (REC); experiment: REC attachment assay; format: cell-based, human; conditions: increasing concentrations (100 nM to 1 μM), six hours
From the text: Adhesive interactions with extracellular matrix proteins rely on focal adhesion proteins engaging with integrins to strengthen and maintain cell contacts. In the transwell migration assay system, initial cell-attachment to the porous membrane was relied upon in order to obtain a measure of cells that have migrated through to the underside of the well. Since compound (II-4) was in direct contact with cells prior to being seeded onto the transwell membranes, the potential of compound (II-4) to impede the attachment of RECs to the membranes was investigated. […] However, investigation of integrin-mediated signaling may be of interest to further evaluate and characterize compound (II-4)'s potential role in disrupting cross-talk between growth-factor and integrin-mediated signaling during pathological retinal angiogenesis.
FIG. 19: REC attachment assay. Increasing concentrations of compound (II-4) with suspended RECs were seeded to 96-wells to investigate inhibition of REC-adherence to attachment-factor surfaces. […] (P>0.05; n=8).

CYP3A4 = target: T1, CYP3A4 (Homo sapiens, UniProt P08684); experiment: CYP-450 interaction study in pooled human liver microsomes, CYP3A4; format: in vitro ADME; conditions: 1 μM
T1 construct: from tissue; host or cells: pooled human liver microsomes
T1 sequence (P08684 whole entry): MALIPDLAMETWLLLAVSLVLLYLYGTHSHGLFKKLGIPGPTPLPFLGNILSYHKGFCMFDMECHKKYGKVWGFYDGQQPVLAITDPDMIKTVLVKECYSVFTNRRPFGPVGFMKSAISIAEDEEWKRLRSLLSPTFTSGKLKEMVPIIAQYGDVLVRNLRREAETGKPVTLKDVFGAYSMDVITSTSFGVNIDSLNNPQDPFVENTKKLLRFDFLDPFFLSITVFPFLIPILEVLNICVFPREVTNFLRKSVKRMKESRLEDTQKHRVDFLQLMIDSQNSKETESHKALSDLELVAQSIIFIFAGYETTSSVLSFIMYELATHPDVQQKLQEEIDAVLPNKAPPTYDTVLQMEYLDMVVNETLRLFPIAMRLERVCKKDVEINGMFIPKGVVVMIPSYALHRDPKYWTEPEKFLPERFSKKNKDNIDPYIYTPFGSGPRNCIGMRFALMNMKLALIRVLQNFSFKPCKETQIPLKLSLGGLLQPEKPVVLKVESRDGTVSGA
Method: CYP-450 interaction studies were conducted in pooled human liver microsomes (FIG. 8). CYP-450 inhibition (%) by compound (II-4) (1 μM) was compared to control inhibitors (1 μM) for the most common CYP-450 isoforms, CYP3A4, CYP2C9, CYP2D6, CYP2C19, and CYP1A2.
CYP-450 interaction studies were conducted in pooled human liver microsomes (FIG. 24). CYP-450 inhibition (%) by compound (II-4) (1 μM) was compared to control inhibitors (1 μM) for the most common CYP-450 isoforms, 3A4, 2C9, 2D6, 2C19, and 1A2.

microsomal stability (metabolism by cytochrome P-450 enzymes) [1]: rapidly metabolized
Structure (SMILES): COc1cc(C2OC(=O)Nc3c2ccc2ccccc32)cc(OC)c1OC (stereo not drawn) [compound II-4]
hypoxia-induced neovascularization (neovascular area) (murine OIR model): striking inhibition; also recorded: reductions in NV
retinal avascular area (murine OIR model): modest increase; also recorded: increases in AV
cell proliferation (CFSE) (92.1 cell line): not affected
attachment of RECs to attachment-factor coated wells [2]: did not impede the attachment
CYP-450 inhibition, CYP3A4 (CYP3A4): lack of significant inhibition; also recorded: lacks significant inhibition
